Measurements from patent US11339165B2, “Pyrazolopyrimidines having activity against the respiratory syncytial virus (RSV)” (priority 2017, dated 2022).

How the values were obtained:
rgRSV224 virus = assay: Antiviral activity: rgRSV224 (GFP) replication in HeLa cells; format: cell-based, respiratory syncytial virus (RSV); conditions: human respiratory syncytial virus, HeLa, 72 h, read-out: RSV HELA EC50 (μM), rgRSV224 virus (MOI=1), HeLa cells, GFP expression three days post-virus exposure
in vitro = conditions: human, TOX HELA CC50 (μM)
Protocol: Black 384-well clear-bottom microtiter plates (Corning, Amsterdam, The Netherlands) were filled via acoustic drop ejection using the echo liquid handler (Labcyte, Sunnyvale, Calif.). 200 nL of compound stock solutions (100% DMSO) were transferred to the assay plates. 9 serial 4-fold dilutions of compound were made, creating per quadrant the same compound concentration. The assay was initiated by adding 10 μL of culture medium to each well (RPMI medium without phenol red, 10% FBS-heat inactivated, 0.04% gentamycin (50 mg/mL). All addition steps are done by using a multidrop dispenser (Thermo Scientific, Erembodegem, Belgium). Next, rgRSV224 virus (MOI=1) diluted in culture medium was added to the plates. rgRSV224 virus is an engineered virus that includes an additional GFP gene (Hallak L K, Spillmann D, Collins P L, Peeples M E. Glycosaminoglycan sulfation requirements for respiratory syncytial virus infection; Journal of virology (2000), 74(22), 10508-13) and was in-licensed from the NIH (Bethesda, Md., USA). Finally, 20 μL of a HeLa cell suspension (3,000 cells/well) were plated. Medium, virus- and mock-infected controls were included in each test. The wells contain 0.05% DMSO per volume. Cells were incubated at 37° C. in a 5% CO2 atmosphere. Three days post-virus exposure, viral replication was quantified by measuring GFP expression in the cells by an in house developed MSM laser microscope (Tibotec, Beerse, Belgium). The EC50 was defined as the 50% inhibitory concentration for GFP expression. In parallel, compounds were incubated for three days in a set of white 384-well microtiter plates (Corning) and the cytotoxicity of compounds in HeLa cells was determined by measuring the ATP content of the cells using the ATPlite kit (Perkin Elmer, Zaventem, Belgium) according to the manufacturer's instructions. The CC50 was defined as the 50% concentration for cytotoxicity.

| SMILES | EC50 (rgRSV224 virus) [µM] | CC50 at 3 days (in vitro) [µM] |
| --- | --- | --- |
| C[C@@H]1c2ccccc2CCN1C(=O)c1cc(C2CC2)n2nc(-c3ccc(N4CCCC(C(N)=O)C4)cc3F)cc2n1 (stereo partly drawn) [Compound 69, 1-(4-{7-Cyclopropyl-5-[(1R)-1-methyl-1,2,3,4-tetrahydroisoquinoline-2-carbonyl]-pyrazolo[1,5-a]pyrimidin-2-yl}-3-fluorophenyl)piperidine-3-carboxamide] | 0.059 | 33.2 |
| CC(=O)NS(=O)(=O)C1CCN(c2ccc(-c3cc4nc(C(=O)N5CCc6ccccc6[C@H]5C)cc(C5CC5)n4n3)c(F)c2)C1 (stereo partly drawn) [Compound 20, N-{[1-(4-{7-Cyclopropyl-5-[(1R)-1-methyl-1,2,3,4-tetrahydroisoquinoline-2-carbonyl]-pyrazolo[1,5-a]pyrimidin-2-yl}-3-fluorophenyl)pyrrolidin-3-yl]sulfonyl}acetamide] | 0.052 | 55.9 |
| Cc1cc(N2CC[C@H](C(N)=O)C2)cc(F)c1-c1cc2nc(C(=O)N3CCc4ccccc4[C@H]3C)cc(C3CC3)n2n1 [Compound 89, (3S)-1-(4-{7-Cyclopropyl-5-[(1R)-1-methyl-1,2,3,4-tetrahydroisoquinoline-2-carbonyl]pyrazolo[1,5-a]pyrimidin-2-yl}-3-fluoro-5-methylphenyl)pyrrolidine-3-carboxamide] | 0.165 | 33.4 |
| CNS(=O)(=O)C1CCN(c2ccc(-c3cc4nc(C(=O)N5CCc6ccccc6[C@H]5C)cc(C5CC5)n4n3)c(F)c2)C1 (stereo partly drawn) [Compound 21, 1-(4-{7-Cyclopropyl-5-[(1R)-1-methyl-1,2,3,4-tetrahydroisoquinoline-2-carbonyl]-pyrazolo[1,5-a]pyrimidin-2-yl}-3-fluorophenyl)-N-methylpyrrolidine-3-sulfonamide] | 0.045 | > 100 |
| C[C@@H]1c2ccccc2CCN1C(=O)c1cc(C2CC2)n2nc(-c3ccc(N4C[C@@H](O)[C@H](O)C4)cc3F)cc2n1 [Compound 100, (7-cyclopropyl-2-(4-((3R,4R)-3,4-dihydroxypyrrolidin-1-yl)-2-fluorophenyl)pyrazolo[1,5-a]pyrimidin-5-yl)((R)-1-methyl-3,4-dihydroisoquinolin-2(1H)-yl)methanone] | 0.011 | 23.8 |
| C[C@@H]1c2ccccc2CCN1C(=O)c1cc(C2CC2)n2nc(-c3ccc(N4C[C@H](O)[C@H](O)[C@H]4CO)cc3F)cc2n1 [Compound 98] | 0.039 | 47.6 |
| C[C@@H]1c2ccccc2CCN1C(=O)c1cc(C2CC2)n2nc(-c3ccc(N4CCCC(CC(N)=O)C4)cc3F)cc2n1 (stereo partly drawn) [Compound 71, 2-[1-(4-{7-Cyclopropyl-5-[(1R)-1-methyl-1,2,3,4-tetrahydroisoquinoline-2-carbonyl]-pyrazolo[1,5-a]pyrimidin-2-yl}-3-fluorophenyl)piperidin-3-yl]acetamide] | 0.105 | 29.8 |
| C[C@@H]1c2ccccc2CCN1C(=O)c1cc(C2CC2)n2nc(-c3ccc(N4CC[C@@H](c5nnn[nH]5)C4)cc3F)cc2n1 [Compound 2, (1R)-2-(7-Cyclopropyl-2-{2-fluoro-4-[(3R)-3-(1H-1,2,3,4-tetrazol-5-yl)pyrrolidin-1-yl]phenyl}pyrazolo[1,5-a]pyrimidine-5-carbonyl)-1-methyl-1,2,3,4-tetrahydroisoquinoline] | 0.056 | 38.7 |
| Cc1ccc(-c2cc(C(=O)N3CCc4ccccc4[C@H]3C)nc3cc(-c4ccc(N5CC[C@H](C(N)=O)C5)cc4F)nn23)cc1 [Compound 58, (3S)-1-(3-Fluoro-4-{5-[(1R)-1-methyl-1,2,3,4-tetrahydroisoquinoline-2-carbonyl]-7-(4-methylphenyl)pyrazolo[1,5-a]pyrimidin-2-yl}phenyl)pyrrolidine-3-carboxamide] | 0.036 | > 100 |
| C[C@@H]1c2ccsc2CCN1C(=O)c1cc(C2CC2)n2nc(-c3ccc(N4CC[C@H](C(=O)NS(C)(=O)=O)C4)cc3F)cc2n1 (single isomer, unassigned) [Compound 41, (3S)-1-(4-{7-Cyclopropyl-5-[(4*R)-4-methyl-4,5,6,7-tetrahydro-thieno[3,2-c]pyridine-5-carbonyl]pyrazolo[1,5-a]pyrimidin-2-yl}-3-fluorophenyl)-N-methanesulfonylpyrrolidine-3-carboxamide] | 0.036 | 51.1 |
| C[C@@H]1c2ccccc2CCN1C(=O)c1cc(-c2cncnc2)n2nc(-c3ccc(N4CC[C@H](C(N)=O)C4)cc3F)cc2n1 [Compound 64, (3S)-1-(3-Fluoro-4-{5-[(1R)-1-methyl-1,2,3,4-tetrahydroisoquinoline-2-carbonyl]-7-(pyrimidin-5-yl)pyrazolo[1,5-a]pyrimidin-2-yl}phenyl)pyrrolidine-3-carboxamide] | 0.029 | 8.9 |
| C[C@@H]1c2ccccc2CCN1C(=O)c1cc(C2CC2)n2nc(-c3ccc(N4CC[C@H](S(C)(=O)=O)C4)cc3F)cc2n1 [Compound 18, (1R)-2-(7-Cyclopropyl-2-{2-fluoro-4-[(3S)-3-methanesulfonylpyrrolidin-1-yl]phenyl}-pyrazolo[1,5-a]pyrimidine-5-carbonyl)-1-methyl-1,2,3,4-tetrahydroisoquinoline] | 0.044 | > 100 |
| C[C@@H]1c2ccccc2CCN1C(=O)c1cc(C2CC2)n2nc(-c3ccc(N4C[C@H](O)C(F)(F)C4)cc3F)cc2n1 [Compound 97, (7-cyclopropyl-2-(4-((S)-3,3-difluoro-4-hydroxypyrrolidin-1-yl)-2-fluorophenyl)pyrazolo[1,5-a]pyrimidin-5-yl)((R)-1-methyl-3,4-dihydroisoquinolin-2(1H)-yl)methanone] | 0.053 | 26.1 |
| C[C@@H]1c2ccccc2CCN1C(=O)c1cc(C2CC2)n2nc(-c3ncc(N4CC[C@H](C(N)=O)C4)nc3F)cc2n1 [Compound 88, (3S)-1-(5-{7-Cyclopropyl-5-[(1R)-1-methyl-1,2,3,4-tetrahydroisoquinoline-2-carbonyl]-pyrazolo[1,5-a]pyrimidin-2-yl}-6-fluoropyrazin-2-yl)pyrrolidine-3-carboxamide] | 0.017 | 47.6 |
| C[C@@H]1c2ccccc2CCN1C(=O)c1cc(C2CC2)n2nc(-c3ccc(N4CC[C@H](C(=O)N(C)C)C4)cc3F)cc2n1 [Compound 38, (3S)-1-(4-{7-Cyclopropyl-5-[(1R)-1-methyl-1,2,3,4-tetrahydroisoquinoline-2-carbonyl]-pyrazolo[1,5-a]pyrimidin-2-yl}-3-fluorophenyl)-N,N-dimethylpyrrolidine-3-carboxamide] | 0.043 | > 100 |
| C[C@@H]1c2ccccc2CCN1C(=O)c1cc(C2CC2)n2nc(-c3ccc(N4CC(CC(N)=O)C4)nc3F)cc2n1 [Compound 92, 2-[1-(5-{7-Cyclopropyl-5-[(1R)-1-methyl-1,2,3,4-tetrahydroisoquinoline-2-carbonyl]-pyrazolo[1,5-a]pyrimidin-2-yl}-6-fluoropyridin-2-yl)azetidin-3-yl]acetamide] | 0.071 | 41.5 |
| C[C@@H]1c2ccccc2CCN1C(=O)c1cc(-c2ccc(Cl)cc2)n2nc(-c3ccc(N4CC[C@H](C(N)=O)C4)cc3F)cc2n1 [Compound 59, (3S)-1-{4-[7-(4-Chlorophenyl)-5-[(1R)-1-methyl-1,2,3,4-tetrahydroisoquinoline-2-carbonyl]pyrazolo[1,5-a]pyrimidin-2-yl]-3-fluorophenyl}pyrrolidine-3-carboxamide] | 0.047 |  |
